According to paper PMC7576778, “The tomato receptor CuRe1 senses a cell wall protein to identify Cuscuta as a pathogen” (Nature Communications, 2020):
Several values for one entry are separate records, joined by “and”; a condition that tells them apart may be missing. Equal entries are not always repeated.

What was measured:
CuRe1 [1] = experiment: Ethylene bioassay, leaf pieces of transgenic CuRe1-expressing N. benthamiana; format: cell-based, S. lycopersicum (tomato), expressed in N. benthamiana; design: ethylene measurement, average: unit not given here; details: for activity in CuRe1-dependent ethylene induction (in words) / concentration at which ethylene production is triggered (minimum effective concentration): CuRe1-expressing N. benthamiana leaves; for concentration at which ethylene production is triggered (minimum effective concentration): dose-dependent ethylene bioassay; for Ethylene, MW: RepFig 3a_2, H2O
Description: (§1) All obtained extracts or collected fractions after each purification step, as well as the isolated CrGRP or synthesized Crip peptides were tested for bioactivity in the ethylene assay as previously described. For this we cut leaf samples of analyzed plants in 3 × 3 mm squares and float them on a water surface. After incubation over night at RT, three leaf pieces are carefully collected into glass tubes (6 ml) with 500 µl water. Samples were treated as indicated as well as amounts of used extracts or concentrations of peptides. After treatment tubes were sealed with a rubber plug and incubated at RT on a horizontal shaker (85–100 rpm) for 3 h. All samples were analyzed with a Gaschromatograph (Shimadzu, GC-2014, glass column 3 mm × 1.6 m with Al2O3) by manually injecting 1 ml of the gaseous phase.

N. benthamiana wt = experiment: Ethylene bioassay, leaf pieces of wildtype N. benthamiana; format: cell-based
Description: as §1

S. lycopersicum = experiment: Ethylene bioassay, leaf pieces of cultivated tomato; format: cell-based; details: Suppl.Fig6c, peptides applied at 5 µM each, mean of the samples
Description: as §1

[2] = tested on: leaves of S. lycopersicum, IL 12-2, IL 8-1-1 and S. pennellii; experiment: Hypersensitive response (HR) cell death after peptide infiltration into tomato leaves; format: in vivo; details: 7 days
Description: For monitoring hypersensitive responses (HR) in leaves, 35S::CrGRP:GFP or 35S::GFP constructs were expressed in either transgenic, CuRe1-expressing or wt N. benthamiana plants. Leaves were infiltrated as described above using the defined volume of 200 µl; infiltration area was carefully labeled with a black marker. Pictures were taken 7 days post infiltration. For detecting HR-symptoms in tomato plants, two leaves of three plants (six leaves total; per introgression line or wildtype) were infiltrated with 100 µl of a 100 nM peptide solution; infiltrated leaf area was labeled with a pen immediately after infiltration and photographs were taken 7 days post peptide infiltration.

[3] = MS analysis of Crip21 treated with NH4OH or ethylamine; format: physicochemical; details: 12.5% NH4OH or 70% ethylamine
Description: The Cuscuta factor (CuF) could be inactivated by incubating it either with 12.5% NH4OH or 70% ethylamine for 1 h at 45 °C.
49 Supplementary Fig. 5. Inactivation of Crip21 by treatments with NH4OH or Ethylamine; (a) Crip21
51 biosynthesis in CuRe1-expressing N. benthamiana leaves. Peptide samples were applied at
52 concentrations of 100 nM. Bovine serum albumin (BSA; 0.01 mg/ml) buffered in 25 mM MES (pH
53 5.7) was added as mock control. FW, fresh weight; ethylene measurements show means of three
54 technical replicates; error bars denote SD. (b) incubation with NH4OH or Ethylamine leads to
56 products with different masses.
(1 picture or pasted object on this page, not shown here)

CuRe1 [4] = experiment: Affinity-crosslinking of bio-Crip29 with CuRe1 in planta; format: binding, S. lycopersicum (tomato), expressed in N. benthamiana
Description: In vivo cross-linking of biotin-Crip29 (Crip29 aa-sequence: […]) to CuRe1 was performed as described; leaves of N. benthamiana expressing 35S::CuRe1:myc, or control plants (N. benthamiana expressing 35S::RLP23:myc) were infiltrated with biotinylated bio-Crip29 (10 nM in ddH2O) with or without unlabeled Crip21 (or unlabeled Crip82-106) (10 μM) as competitor or with flg22 peptide as competition control. Five minutes after peptide treatment 2 mM EGS (ethylene glycol bis(succinimidyl succinate) in 25 mM HEPES buffer (pH 7.5) was infiltrated into the same leaves for cross-linking of peptides to the receptor proteins. Twenty minutes after cross-linking, leaf samples were harvested and frozen in liquid nitrogen; immunoprecipitations were performed against the myc tag present at the c-terminus of CuRe1 using myc-trap agarose beads (ChromoTek, IZB Martinsried, Germany) as described above. All peptides, including biotinylated bio-Crip29, were synthesized by GenScript® and ordered with a purity of >95%. Biotinylated Crip29 was detected on blots by Streptavidine-conjugated Alkaline Phosphatase (Strep-AP, Roche diagnostics; Streptavidin-AP conjugate, Cat. No.: 11089161001, dilution: 1:1000 in 5% Albumin Fraction V, biotin-free).

[5] = biological target: Cuscuta Receptor 1 (CuRe1), myc-tagged (tomato (Solanum lycopersicum))
[6] = RepFig3b_2, 0.01 nM, mean of 3 samples
[7] = RepFig3b_2, 0.1 nM, mean of 3 samples
[8] = RepFig3b_2, 1 nM, mean of 3 samples
[9] = RepFig3b_2, 10 nM, mean of 3 samples
[10] = RepFig3b_2, 100 nM, mean of 3 samples
[11] = Fig3a + Supl4, N. benthamiana CuRe1, peptide 1 nM, mean of 3 technical replicates
[12] = Fig3a + Supl4, N. benthamiana CuRe1, peptide 10 nM, mean of 3 technical replicates
[13] = Fig3a + Supl4, N. benthamiana CuRe1, peptide 100 nM, mean of 3 technical replicates

Crip21: 21 aa cysteine-rich peptide, minimal epitope of C. reflexa glycine-rich protein CrGRP, synthesized (NCGNSGCCGGAYSNGQCKRCC)
ethylene-inducing bioactivity after treatment with NH4OH (CuRe1 [1]; 12.5% NH4OH, 1 h at 45 °C, read-out ethylene in CuRe1 N. benthamiana, peptide 100 nM): lost all of its activity | ethylene-inducing bioactivity after treatment with ethylamine (CuRe1 [1]; 70% ethylamine, 1 h at 45 °C, read-out ethylene in CuRe1 N. benthamiana, peptide 100 nM): loose activity | activity in CuRe1-dependent ethylene induction (in words) (CuRe1 [1]): full activity | concentration at which ethylene production is triggered (minimum effective concentration) (CuRe1 [1]): > 0.1 nM | ethylene, average (CuRe1 [1]; Fig3a + Supl4, N. benthamiana CuRe1, amount printed as 1 µl, mean of 3 technical replicates): 10 | ethylene, average (CuRe1 [1]; [6]): 0.2767 | ethylene, average (CuRe1 [1]; [7]): 1.39 | ethylene, average (CuRe1 [1]; [8]): 4.143 | ethylene, average (CuRe1 [1]; [9]): 8.283 | ethylene, average (CuRe1 [1]; [10]): 9.4 | ethylene, average (CuRe1 [1]; Suppl.Fig5, N. benthamiana CuRe1, peptide samples 100 nM, untreated or treated with 12.5% NH4OH / 70% ethylamine, mean of 9 samples, values <0.2 not collected): 3.844 | ethylene, average (CuRe1 [1]; Suppl.Fig6b, N. benthamiana CuRe1, 0.01 nM, mean of 3): 0.375 pmol/ml air | ethylene, average (CuRe1 [1]; Suppl.Fig6b, N. benthamiana CuRe1, 0.1 nM, mean of 3): 0.45 pmol/ml air | ethylene, average (CuRe1 [1]; Suppl.Fig6b, N. benthamiana CuRe1, 1 nM, mean of 3): 1.1 pmol/ml air | ethylene, average (CuRe1 [1]; Suppl.Fig6b, N. benthamiana CuRe1, 10 nM, mean of 3): 2.8 pmol/ml air | ethylene, average (CuRe1 [1]; Suppl.Fig6b, N. benthamiana CuRe1, 100 nM, mean of 3): 11.3 pmol/ml air | ethylene, average (CuRe1 [1]; Suppl.Fig6b, N. benthamiana CuRe1, 1000 nM, 3 leaf pieces + 0.5 ml H2O / 6 ml tube, 3 h RT, mean of 3): 11.6 pmol/ml air | ethylene measurement, average (CuRe1 [1]; Suppl.Fig6c, N. benthamiana Cure1, peptides applied at 5 µM each, mean of the samples): 9.564 | ethylene, average (N. benthamiana wt; Fig3a + Supl4, amount printed as 1 µl, mean of 3): 0.2667 | ethylene, average (N. benthamiana wt; Suppl.Fig5, peptide samples 100 nM, mean of 3, values <0.2 not collected): 0.2 | ethylene measurement, average (N. benthamiana wt; Suppl.Fig6c, peptides applied at 5 µM each, mean of the samples): 0.1967 | ethylene measurement, average (S. lycopersicum): 20.1539 | HR-type cell death, plants lacking CuRe1 ([2]; leaves of S. pennellii and IL8-1-1 infiltrated with 100 nM peptide): did not | HR-type cell death, plants with functional CuRe1 ([2]; leaves of cultivated tomato (S. lycopersicum) or IL 12-2 infiltrated with 100 nM peptide): showed Crip21-dependent cell death | peptide mass signal after incubation with NH4OH or ethylamine [3]: disappearance of the peptide mass signal

GKGKNCGNSGCCGGAYSNGQCKRCCAYKG [bio-Crip29]
activity in CuRe1-dependent ethylene induction (in words) (CuRe1 [1]): as active as Crip21 | ethylene, average (CuRe1 [1]; [6]): 0.2933 | ethylene, average (CuRe1 [1]; [7]): 0.34 | ethylene, average (CuRe1 [1]; [8]): 1.017 | ethylene, average (CuRe1 [1]; [9]): 5.31 | ethylene, average (CuRe1 [1]; [10]): 7.693 | biotin labelling of CuRe1 immunoprecipitates (CuRe1 [4]; bio-Crip29 10 nM infiltrated, crosslinked with 2 mM EGS, myc-trap IP, Strep-AP blot): clear labelling

GGGGSGHGGHGKGKN [GRP15, 15 aa peptide that served as fingerprint for identification of CrGRP]
activity in CuRe1-dependent ethylene induction (in words) (CuRe1 [1]): completely inactive | ethylene, average (CuRe1 [1]; [11]): 0,2 and 0.2127 | ethylene, average (CuRe1 [1]; [12]): 0,3 and 0.2733 | ethylene, average (CuRe1 [1]; [13]): 0,6 and 0.5933 | ethylene, average (CuRe1 [1]; Fig3a + Supl4, N. benthamiana CuRe1, peptide 1000 nM, mean of 3 technical replicates): 0,4 and 0.3733 | activity at 100 µM (CuRe1 [1]; authors' reply in peer review file, refers to Supplementary Fig. 4): no activity

GKNCGNSGCCGGAYSNGQCKRCCAY [CrGRP82-106, synthetic peptide representing CrGRP residues 82-106]
concentration at which ethylene production is triggered (minimum effective concentration) (CuRe1 [1]): ≥ 0.1 nM | ethylene, average (CuRe1 [1]; [11]): 5.823 | ethylene, average (CuRe1 [1]; [12]): 8.73 | ethylene, average (CuRe1 [1]; [13]): 9.817 | Ethylene, MW (CuRe1 [1]; 1 nM, 3 h RT, mean of 3 samples): 1.5 pmol/ml air | Ethylene, MW (CuRe1 [1]; 10 nM, 3 h RT, mean of 3 samples): 4.6 pmol/ml air | Ethylene, MW (CuRe1 [1]; 100 nM, 3 h RT, mean of 3 samples): 8.9 pmol/ml air | ethylene, average (CuRe1 [1]; [6]): 0.29 | ethylene, average (CuRe1 [1]; [7]): 1.63 | ethylene, average (CuRe1 [1]; [8]): 3.067 | ethylene, average (CuRe1 [1]; [9]): 8.457 | ethylene, average (CuRe1 [1]; [10]): 11.2833 | ethylene, average (N. benthamiana wt; Fig3a + Supl4, peptide 100 nM, mean of 3): 0.2267

non-modified Crip: unlabeled Crip21 or Crip82-106 (10 µM) used as competitor in crosslinking (NCGNSGCCGGAYSNGQCKRCC)
competition of bio-Crip29 labelling of CuRe1 (CuRe1 [4]; bio-Crip29 10 nM with excess competitor (10 µM)): absent

CrGRP82-106 synthetic peptide
ethylene production in CuRe1-expressing N. benthamiana, dose series of peptide [5]: > 0.1 nM
